# Measurements: patent publication US20160207928A1, “NOVEL COMPOUNDS FOR THE TREATMENT OF CANCER” (BAYER PHARMA AKTIENGESELLSCHAFT, priority 2013, published 2016)
# Assays:
# human kinase Mps-1 = target: T1, human kinase Mps-1 (Homo sapiens, UniProt P33981); experiment: Mps-1 kinase assay (TR-FRET, 10 μM ATP); format: biochemical; conditions: N-terminally GST-tagged human full length recombinant Mps-1, read-out: Mps-1 Inhibition, IC50 (Assay with 10 μM ATP)
# T1 construct: N-terminally GST-tagged human full length recombinant Mps-1 kinase; purchased Invitrogen, Karslruhe, Germany PV4071
# T1 sequence (P33981 1-857): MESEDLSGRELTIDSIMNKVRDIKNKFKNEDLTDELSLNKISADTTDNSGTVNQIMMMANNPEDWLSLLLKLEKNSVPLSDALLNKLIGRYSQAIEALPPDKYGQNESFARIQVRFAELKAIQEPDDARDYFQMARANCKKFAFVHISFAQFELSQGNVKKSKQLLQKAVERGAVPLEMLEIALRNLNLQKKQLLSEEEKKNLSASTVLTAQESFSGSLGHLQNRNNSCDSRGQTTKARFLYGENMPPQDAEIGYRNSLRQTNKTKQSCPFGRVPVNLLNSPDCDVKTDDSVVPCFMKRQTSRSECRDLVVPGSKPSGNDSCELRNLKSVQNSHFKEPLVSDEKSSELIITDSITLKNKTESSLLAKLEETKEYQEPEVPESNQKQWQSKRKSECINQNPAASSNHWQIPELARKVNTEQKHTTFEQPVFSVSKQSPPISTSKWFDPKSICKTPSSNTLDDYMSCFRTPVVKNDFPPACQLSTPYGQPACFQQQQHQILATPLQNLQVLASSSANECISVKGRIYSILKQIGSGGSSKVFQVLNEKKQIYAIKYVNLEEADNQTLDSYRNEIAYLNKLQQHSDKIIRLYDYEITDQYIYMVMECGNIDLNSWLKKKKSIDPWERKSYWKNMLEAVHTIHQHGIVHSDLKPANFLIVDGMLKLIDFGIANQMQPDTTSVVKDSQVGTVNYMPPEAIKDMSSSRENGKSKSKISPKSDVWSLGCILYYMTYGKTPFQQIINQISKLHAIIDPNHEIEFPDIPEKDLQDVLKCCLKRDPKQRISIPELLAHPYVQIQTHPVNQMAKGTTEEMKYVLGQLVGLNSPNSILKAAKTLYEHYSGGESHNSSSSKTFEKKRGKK
# Method: The human kinase Mps-1 phosphorylates a biotinylated substrate peptide. Detection of the phosphorylated product is achieved by time-resolved fluorescence resonance energy transfer (TR-FRET) from Europium-labelled anti-phospho-Serine/Threonine antibody as donor to streptavidin Labelled with cross-linked allophycocyanin (SA-XLent) as acceptor. Compounds are tested for their inhibition of the kinase activity.
# N-terminally GST-tagged human full length recombinant Mps-1 kinase (purchased from Invitrogen, Karslruhe, Germany, cat. no PV4071) was used. As substrate for the kinase reaction a biotinylated peptide of the amino-acid sequence PWDPDDADITEILG (C-terminus in amide form, purchased from Biosynthan GmbH, Berlin) was used.
# For the assay 50 nl of a 100-fold concentrated solution of the test compound in DMSO was pipetted into a black low volume 384 well microtiter plate (Greiner Bio-One, Frickenhausen, Germany), 2 μl of a solution of Mps-1 in assay buffer [0.1 mM sodium-ortho-vanadate, 10 mM MgCl2, 2 mM DTT, 25 mM Hepes pH 7.7, 0.05% BSA, 0.001% Pluronic F-127] were added and the mixture was incubated for 15 min at 22° C. to allow pre-binding of the test compounds to Mps-1 before the start of the kinase reaction. Then the kinase reaction was started by the addition of 3 μl of a solution of […] (ATP, 16.7 μM=>final conc. in the 5 μl assay volume is 10 μM) and peptide substrate (1.67 μM=>final conc. in the 5 μl assay volume is 1 μM) in assay buffer and the resulting mixture was incubated for a reaction time of 60 min at 22° C. The concentration of Mps-1 in the assay was adjusted to the activity of the enzyme lot and was chosen appropriate to have the assay in the linear range, typical enzyme concentrations were in the range of about 1 nM (final conc. in the 5 μl assay volume). The reaction was stopped by the addition of 3 μl of a solution of HTRF detection reagents (100 mM Hepes pH 7.4, 0.1% BSA, 40 mM EDTA, 140 nM Streptavidin-XLent [#61GSTXLB, Fa. Cis Biointernational, Marcoule, France], 1.5 nM anti-phospho(Ser/Thr)-Europium-antibody [#AD0180, PerkinElmer LAS, Rodgau-Jügesheim, Germany].
# The resulting mixture was incubated 1 h at 22° C. to allow the binding of the phosphorylated peptide to the anti-phospho(Ser/Thr)-Europium-antibody. Subsequently the amount of phosphorylated substrate was evaluated by measurement of the resonance energy transfer from the Europium-labelled anti-phospho(Ser/Thr) antibody to the Streptavidin-XLent. Therefore, the fluorescence emissions at 620 nm and 665 nm after excitation at 350 nm was measured in a Viewlux TR-FRET reader (PerkinElmer LAS, Rodgau-Jügesheim, Germany). The “blank-corrected normalized ratio” (a Viewlux specific readout, similar to the traditional ratio of the emissions at 665 nm and at 622 nm, in which blank and Eu-donor crosstalk are subtracted from the 665 nm signal before the ratio is calculated) was taken as the measure for the amount of phosphorylated substrate. The data were normalised (enzyme reaction without inhibitor=0% inhibition, all other assay components but no enzyme=100% inhibition).
# [1] = system: HeLa human cervical tumor cells; experiment: HeLa cell proliferation assay (crystal violet staining); format: cell-based; conditions: 96 h, 4 days incubation, read-out: Inhibition of cell proliferation, cell Line: HeLa IC50
# Method: Cultivated tumor cells (MCF7, hormone dependent human mammary carcinoma cells, ATCC HTB22; NCI-H460, human non-small cell lung carcinoma cells, ATCC HTB-177; DU 145, hormone-independent human prostate carcinoma cells, ATCC HTB-81; HeLa-MaTu, human cervical carcinoma cells, EPO-GmbH, Berlin; HeLa-MaTu-ADR, multidrug-resistant human cervical carcinoma cells, EPO-GmbH, Berlin; HeLa human cervical tumor cells, ATCC CCL-2; B16F10 mouse melanoma cells, ATCC CRL-6475) were plated at a density of 5000 cells/well (MCF7, DU145, HeLa-MaTu-ADR), 3000 cells/well (NCI-H460, HeLa-MaTu, HeLa), or 1000 cells/well (B16F10) in a 96-well multititer plate in 200 μl of their respective growth medium supplemented 10% fetal calf serum. After 24 hours, the cells of one plate (zero-point plate) were stained with crystal violet (see below), while the medium of the other plates was replaced by fresh culture medium (200 μl), to which the test substances were added in various concentrations (0 μM, as well as in the range of 0.01-30 μM; the final concentration of the solvent dimethyl sulfoxide was 0.5%). The cells were incubated for 4 days in the presence of test substances. Cell proliferation was determined by staining the cells with crystal violet: the cells were fixed by adding 20 μl/measuring point of an 11% glutaric aldehyde solution for 15 minutes at room temperature. After three washing cycles of the fixed cells with water, the plates were dried at room temperature. The cells were stained by adding 100 μl/measuring point of a 0.1% crystal violet solution (pH 3.0). After three washing cycles of the stained cells with water, the plates were dried at room temperature. The dye was dissolved by adding 100 μl/measuring point of a 10% acetic acid solution. The extinction was determined by photometry at a wavelength of 595 nm. The change of cell number, in percent, was calculated by normalization of the measured values to the extinction values of the zero-point plate (=0%) and the extinction of the untreated (0 μm) cells (=100%). The IC50 values were determined by means of a 4 parameter fit using the company's own software.
# The compounds of the present invention are characterized by the following IC50 values, determined in a HeLa cell proliferation assay (as described above): […]
IC50 (human kinase Mps-1),IC50 [1],Compound
≤ 1 nM,118 nM,"COc1cc(S(C)(=O)=O)ccc1Nc1nc2cc(-c3ccc(NC(=O)[C@H](C)c4ccc(F)cc4)cc3)ccn2n1 [Example 5.1, (2R)-2-(4-fluorophenyl)-N-[4-(2-{[2-methoxy-4-(methylsulfonyl)phenyl]amino}[1,2,4]triazolo[1,5-a]pyridin-7-yl)phenyl]propanamide]"
≤ 1 nM,24 nM,"COc1cc(C(=O)N2CC(F)C2)ccc1Nc1nc2cc(-c3ccc(NC(=O)[C@H](C)c4ccc(F)cc4)cc3)ccn2n1 [Example 5.2, (2R)—N-{4-[2-({4-[(3-fluoroazetidin-1-yl)carbonyl]-2-methoxyphenyl}amino)[1,2,4]triazolo[1,5-a]pyridin-7-yl]phenyl}-2-(4-fluorophenyl)propanamide]"
≤ 1 nM,13 nM,"C[C@@H](C(=O)Nc1ccc(-c2ccn3nc(Nc4ccc(C(=O)N5CC(F)C5)cc4OCC(F)(F)F)nc3c2)cc1)c1ccc(F)cc1 [Example 5.3, (2R)—N-{4-[2-({4-[(3-fluoroazetidin-1-yl)carbonyl]-2-(2,2,2-trifluoroethoxy)phenyl}amino)[1,2,4]triazolo[1,5-a]pyridin-7-yl]phenyl}-2-(4-fluorophenyl)propanamide]"
≤ 1 nM,82 nM,"C[C@@H](C(=O)Nc1ccc(-c2ccn3nc(Nc4ccc(S(C)(=O)=O)cc4OCC(F)(F)F)nc3c2)cc1)c1ccc(F)cc1 [Example 5.5, (2R)-2-(4-fluorophenyl)-N-[4-(2-{[4-(methylsulfonyl)-2-(2,2,2-trifluoroethoxy)phenyl]amino}[1,2,4]triazolo[1,5-a]pyridin-7-yl)phenyl]propanamide]"
≤ 1 nM,57 nM,"COc1cc(C(=O)N2CCC2)ccc1Nc1nc2cc(-c3ccc(NC(=O)[C@H](C)c4ccc(F)cc4)cc3)ccn2n1 [Example 5.6, (2R)—N-[4-(2-{[4-(azetidin-1-ylcarbonyl)-2-methoxyphenyl]amino}[1,2,4]triazolo[1,5-a]pyridin-7-yl)phenyl]-2-(4-fluorophenyl)propanamide]"
≤ 1 nM,501 nM,"COc1cc(S(C)(=O)=O)ccc1Nc1cn2nc(-c3ccc(NC(=O)[C@H](C)c4ccc(F)cc4)cc3)ccc2n1 [Example 6.1, (2R)-2-(4-fluorophenyl)-N-[4-(2-{[2-methoxy-4-(methylsulfonyl)phenyl]amino}imidazo[1,2-b]pyridazin-6-yl)phenyl]propanamide]"
